≈ marks a conversion by molar mass, not a printed value.
Experiments:
Experiment in all cases: ≥ marks a high value that may be exact or a test limit, other limits are often not marked, values filed in µg/mL are converted to µM
[1] = test system: Staphylococcus aureus ATCC 25923
[2] = test system: Pseudomonas aeruginosa ATCC 27853
[3] = test system: Escherichia coli DH5alpha
Bacillus subtilis = test system: Bacillus subtilis
[4] = test system: Pseudomonas aeruginosa CMCCB 10104
[5] = test system: Escherichia coli ATCC 25922
[6] = test system: Candida albicans ATCC 2002
[7] = test system: Escherichia coli NCTC 10418
[8] = test system: Staphylococcus aureus NCTC 10788
[9] = test system: Candida albicans NCPF 1467

| Structure (SMILES) | MIC [1] [µM] | MIC [4] [µM] | MIC [5] [µM] | MIC [6] [µM] | MIC [7] [µM] | MIC [8] [µM] | MIC [9] [µM] | further results |
| --- | --- | --- | --- | --- | --- | --- | --- | --- |
| CC[C@H](C)[C@H](NC(=O)[C@H](C)NC(=O)[C@@H](N)C(C)C)C(=O)N[C@@H](Cc1ccc(O)cc1)C(=O)NCC(=O)N[C@@H](CCCN=C(N)N)C(=O)N[C@@H](CC(=O)O)C(=O)N[C@@H](CC(=O)O)C(=O)N[C@@H](CCCN=C(N)N)C(=O)N[C@@H](CO)C(=O)N[C@@H](CC(=O)O)C(=O)N[C@H](C(=O)N[C@H]1CSSC[C@@H](C(=O)N[C@@H](CC(=O)O)C(=O)N[C@H](C(=O)N[C@@H](Cc2ccc(O)cc2)C(=O)O)[C@@H](C)O)NC(=O)[C@H](C(C)C)NC(=O)[C@H](CC(C)C)NC(=O)[C@H](Cc2c[nH]c3ccccc23)NC(=O)[C@H](CC(N)=O)NC(=O)[C@H](Cc2cnc[nH]2)NC(=O)[C@H](CCC(N)=O)NC(=O)[C@H](C(C)C)NC(=O)[C@H](CCC(N)=O)NC(=O)[C@H](CCCN=C(N)N)NC1=O)C(C)C [VAIYGRDDRSDVCRQVQHNWLVCDTY] | > 64.3 | ≥ 64.3 | > 64.3 | ≥ 64.3 |  |  |  |  |
| CC[C@H](C)[C@H](NC(=O)[C@H](Cc1cnc[nH]1)NC(=O)[C@@H]1CCCN1C(=O)[C@@H](NC(=O)[C@H](CC(C)C)NC(=O)[C@H](CO)NC(=O)[C@H](CC(C)C)NC(=O)[C@@H](N)Cc1ccccc1)[C@@H](C)CC)C(=O)N[C@H](C(=O)N[C@@H](CO)C(=O)NCC(=O)N[C@H](C(=O)N[C@@H](C)C(=O)N[C@@H](C)C(=O)N[C@@H](CC(C)C)C(=O)N[C@@H](C)C(=O)N[C@@H](CC(N)=O)C(=O)N[C@@H](Cc1cnc[nH]1)C(=O)N[C@@H](CC(C)C)C(N)=O)C(C)C)C(C)C [FLSLIPHIVSGVAALANHL] |  |  |  |  | ≥ 200 | ≥ 200 | ≥ 200 |  |
| CC[C@H](C)[C@H](NC(=O)CN)C(=O)NCC(=O)NCC(=O)N[C@@H](C)C(=O)N[C@@H](CC(C)C)C(=O)N[C@@H](CC(C)C)C(=O)N[C@@H](CO)C(=O)N[C@@H](C)C(=O)NCC(=O)N[C@@H](CCCCN)C(=O)N[C@@H](C)C(=O)N[C@@H](C)C(=O)N[C@@H](CC(C)C)C(=O)N[C@@H](CCCCN)C(=O)NCC(=O)N[C@@H](CC(C)C)C(=O)N[C@@H](C)C(=O)N[C@@H](CCCCN)C(=O)NCC(=O)N[C@@H](CC(C)C)C(=O)N[C@@H](C)C(=O)N[C@@H](CCC(=O)O)C(=O)N[C@@H](Cc1cnc[nH]1)C(=O)N[C@@H](Cc1ccccc1)C(=O)N[C@@H](C)C(=O)N[C@@H](CC(N)=O)C(N)=O [GIGGALLSAGKAALKGLAKGLAEHFAN] |  |  |  |  | 12 (≈ 30.4 µg/mL) | 3 (≈ 7.6 µg/mL) | 6 (≈ 15.2 µg/mL) |  |
| CC[C@H](C)[C@H](NC(=O)[C@H](CC(C)C)NC(=O)[C@H](CCC(N)=O)NC(=O)[C@@H](NC(=O)[C@H](C)NC(=O)CNC(=O)[C@H](CCCCN)NC(=O)[C@@H](NC(=O)[C@H](CC(C)C)NC(=O)[C@@H](NC(=O)[C@H](Cc1ccccc1)NC(=O)[C@@H](NC(=O)CN)C(C)C)[C@@H](C)O)[C@@H](C)CC)[C@@H](C)O)C(=O)NCC(=O)N[C@@H](CCCCN)C(=O)N[C@H](C(=O)N[C@@H](CC(C)C)C(=O)NCC(=O)N[C@@H](CCCCN)C(=O)N[C@@H](CCC(=O)O)C(=O)N[C@@H](CC(C)C)C(=O)NCC(=O)N[C@@H](CCCCN)C(=O)N[C@H](C(=O)NCC(=O)N[C@@H](CC(C)C)C(=O)N[C@@H](CCC(=O)O)C(=O)N[C@H](C(=O)N[C@@H](CCSC)C(=O)N[C@@H](C)C(=O)N[C@H]1CSSC[C@@H](C(=O)O)NC(=O)[C@H](CCC(N)=O)NC(=O)[C@H](CCCCN)NC(=O)[C@H]([C@@H](C)O)NC(=O)[C@H]([C@@H](C)CC)NC(=O)[C@H](CCCCN)NC1=O)[C@@H](C)CC)[C@@H](C)O)[C@@H](C)O [GVFTLIKGATQLIGKTLGKELGKTGLEIMACKITKQC] | 4.06 (≈ 15.8 µg/mL) | 4.06 (≈ 15.8 µg/mL) | 4.06 (≈ 15.8 µg/mL) | 2.03 (≈ 7.9 µg/mL) |  |  |  |  |

Continued, in another order:

| MIC [1] [µM] | MIC [4] [µM] | MIC [5] [µM] | MIC [6] [µM] | MIC [7] [µM] | MIC [8] [µM] | MIC [9] [µM] | Structure (SMILES) | further results |
| --- | --- | --- | --- | --- | --- | --- | --- | --- |
| 200 (≈ 326 µg/mL) |  |  |  |  |  |  | CC[C@H](C)[C@H](NC(=O)[C@H](Cc1ccccc1)NC(=O)[C@@H](NC(=O)[C@H](Cc1ccccc1)NC(=O)[C@H](CCCN=C(N)N)NC(=O)[C@H](CCCCN)NC(=O)[C@H](CCCN=C(N)N)NC(=O)[C@H](CCCCN)NC(=O)[C@H](Cc1ccccc1)NC(=O)[C@H](CC(C)C)NC(=O)[C@@H](NC(=O)[C@@H](N)Cc1ccc(O)cc1)C(C)C)[C@@H](C)CC)C(=O)O [YVLFKRKRFIFI] | MIC [2]: > 200 µM; MIC [3]: ≥ 50 µM; MIC (Bacillus subtilis): ≥ 200 µM |
|  |  |  |  | ≥ 439 | ≥ 439 | ≥ 439 | CC[C@H](C)[C@H](NC(=O)[C@H](C)NC(=O)[C@@H]1CCCN1C(=O)[C@H](CCCN=C(N)N)NC(=O)[C@@H](N)CC(C)C)C(=O)N[C@@H](CC(C)C)C(=O)N[C@H](C(=O)N[C@@H](CCCN=C(N)N)C(=O)N[C@H](C(=O)N[C@@H](CCCCN)C(N)=O)[C@@H](C)O)C(C)C [LRPAILVRTK] |  |
|  |  |  |  | ≥ 202 | ≥ 202 | ≥ 202 | CC[C@H](C)[C@H](NC(=O)[C@H](CO)NC(=O)[C@H](CC(N)=O)NC(=O)[C@@H](NC(=O)[C@H](Cc1ccccc1)NC(=O)[C@H](C)NC(=O)[C@H](CO)NC(=O)[C@H](C)NC(=O)[C@H](Cc1ccccc1)NC(=O)[C@H](CC(=O)O)NC(=O)[C@H](CCCCN)NC(=O)[C@H](C)NC(=O)CNC(=O)[C@@H](NC(=O)[C@H](CCCCN)NC(=O)[C@H](CC(C)C)NC(=O)[C@H](CCCCN)NC(=O)[C@H](CCC(=O)O)NC(=O)[C@H](CC(C)C)NC(=O)[C@H](Cc1ccccc1)NC(=O)CN)[C@@H](C)O)C(C)C)C(=O)N[C@@H](CCCCN)C(=O)NCC(=O)N[C@H](C(=O)O)[C@@H](C)O [GFLEKLKTGAKDFASAFVNSIKGT] |  |
|  |  |  |  | 5 (≈ 9.94 µg/mL) | 5 (≈ 9.94 µg/mL) | 2.5 (≈ 4.97 µg/mL) | CC[C@H](C)[C@H](NC(=O)[C@H](CC(C)C)NC(=O)[C@H](CCCCN)NC(=O)[C@H](CCCCN)NC(=O)[C@@H](NC(=O)[C@H](CC(C)C)NC(=O)[C@H](CCCCN)NC(=O)[C@@H]1CCCN1C(=O)[C@@H](NC(=O)[C@H](CCSC)NC(=O)CNC(=O)[C@H](CC(C)C)NC(=O)[C@@H](N)Cc1ccccc1)[C@@H](C)CC)[C@@H](C)CC)C(=O)N[C@@H](CCCCN)C(=O)N[C@@H](C)C(=O)N[C@@H](Cc1ccccc1)C(=O)N[C@@H](CCCCN)C(=O)O [FLGMIPKLIKKLIKAFK] |  |
| > 64.9 | ≥ 64.9 | > 64.9 | ≥ 64.9 |  |  |  | CC[C@H](C)[C@H](NC(=O)[C@H](Cc1ccc(O)cc1)NC(=O)[C@H](CO)NC(=O)[C@H](CS)NC(=O)[C@H](Cc1ccccc1)NC(=O)[C@H](CC(C)C)NC(=O)[C@H](CC(N)=O)NC(=O)[C@H](CCC(=O)O)NC(=O)[C@H](CCSC)NC(=O)[C@H](CC(C)C)NC(=O)[C@@H](NC(=O)[C@@H](NC(=O)[C@H](CC(=O)O)NC(=O)[C@H](CCC(=O)O)NC(=O)[C@H](CCC(=O)O)NC(=O)[C@H](C)NC(=O)[C@H](CC(N)=O)NC(=O)[C@@H](N)CCC(=O)O)[C@@H](C)CC)C(C)C)C(=O)N[C@H](C(=O)NCC(=O)N[C@@H](CO)C(=O)N[C@@H](C)C(=O)N[C@@H](CC(=O)O)C(=O)N[C@@H](CO)C(=O)N[C@@H](Cc1ccccc1)C(=O)N[C@@H](Cc1c[nH]c2ccccc12)C(=O)N[C@H](C(=O)O)[C@@H](C)O)C(C)C [ENAEEDIVLMENLFCSYIVGSADSFWT] |  |
|  |  |  |  | ≥ 264 | ≥ 33 | ≥ 132 | CC[C@H](C)[C@H](NC(=O)[C@H](C)NC(=O)[C@H](C)NC(=O)[C@@H]1CCCN1C(=O)[C@@H](NC(=O)[C@H](CC(C)C)NC(=O)[C@H](CO)NC(=O)[C@H](CC(C)C)NC(=O)[C@@H](N)Cc1ccccc1)[C@@H](C)CC)C(=O)N[C@@H](CO)C(=O)N[C@@H](C)C(=O)N[C@H](C(=O)N[C@@H](CO)C(=O)N[C@@H](C)C(=O)N[C@@H](CC(C)C)C(=O)N[C@@H](C)C(=O)N[C@@H](CC(N)=O)C(=O)N[C@@H](Cc1cnc[nH]1)C(N)=O)C(C)C [FLSLIPAAISAVSALANH] |  |
